According to patent US11186576B2, “Pyrazolo[1,5-A][1,3,5]triazine and pyrazolo[1,5-A]pyrimidine derivatives as CDK inhibitors” (Aurigene Discovery Technologies Limited, priority 2015, dated 2021):

Molecular target: CDK7/CycH/MNAT1 (Homo sapiens (Human), UniProt P50613)
Assay: Biochemical assay for CDK7 (TR-FRET kinase assay)
Settings: 60 min pre-incubation, 1 mM ATP; for IC50: read-out: IC50; for inhibition at 10 µM: read-out: % inhibition @ 10 μM
In short: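 CDK7/CycH/MNAT1 (5 nM) was preincubated with compound for 60 min at room temperature, then reacted for 60 min with 100 nM ULight-MBP and 1 mM ATP in 1% DMSO. Irreversibility was probed with 20, 60 and 180 min preincubations.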

Sequence of CDK7/CycH/MNAT1 (P50613 whole entry): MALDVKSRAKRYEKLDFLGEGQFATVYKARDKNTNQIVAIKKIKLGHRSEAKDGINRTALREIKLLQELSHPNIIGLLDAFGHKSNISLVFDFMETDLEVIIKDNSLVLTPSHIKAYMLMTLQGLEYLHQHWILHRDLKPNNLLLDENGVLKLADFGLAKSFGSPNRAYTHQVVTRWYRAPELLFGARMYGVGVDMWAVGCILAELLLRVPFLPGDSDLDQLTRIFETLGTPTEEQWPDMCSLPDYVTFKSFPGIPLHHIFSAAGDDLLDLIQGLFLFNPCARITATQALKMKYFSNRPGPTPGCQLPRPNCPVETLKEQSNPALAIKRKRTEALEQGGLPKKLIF
Sequence of CDK7/CycH/MNAT1 (P51946 whole entry partner): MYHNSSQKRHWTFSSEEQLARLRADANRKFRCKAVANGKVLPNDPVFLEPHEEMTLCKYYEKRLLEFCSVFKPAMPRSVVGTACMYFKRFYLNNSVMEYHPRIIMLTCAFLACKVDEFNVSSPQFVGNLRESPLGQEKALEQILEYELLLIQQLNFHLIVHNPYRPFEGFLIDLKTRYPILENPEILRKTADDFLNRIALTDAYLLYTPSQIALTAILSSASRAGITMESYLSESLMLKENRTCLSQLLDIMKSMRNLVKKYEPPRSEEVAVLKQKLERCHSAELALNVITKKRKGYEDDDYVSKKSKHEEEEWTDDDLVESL
Sequence of CDK7/CycH/MNAT1 (P51948 whole entry partner): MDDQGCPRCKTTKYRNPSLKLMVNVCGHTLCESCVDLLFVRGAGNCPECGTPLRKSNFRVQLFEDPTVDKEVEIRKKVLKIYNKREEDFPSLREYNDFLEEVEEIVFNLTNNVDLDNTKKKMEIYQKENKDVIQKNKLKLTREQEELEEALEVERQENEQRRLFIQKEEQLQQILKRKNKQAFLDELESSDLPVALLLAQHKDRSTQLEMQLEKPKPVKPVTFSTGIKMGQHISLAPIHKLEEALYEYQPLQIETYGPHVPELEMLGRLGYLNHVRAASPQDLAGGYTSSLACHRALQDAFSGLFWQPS

Row | Compound | % inhibition @ 10 μM (10 μM compound) | IC50 | inhibition at 10 µM (10 μM compound)
1 | C=CC(=O)N[C@H]1CC[C@@H](C(=O)Nc2cccc(CNc3nc(NC4CCCC(O)C4)nc4c(C(C)C)cnn34)c2)CC1 (single isomer, unassigned) [Compound 11, 4-acrylamido-N-(3-(((2-((3-hydroxycyclohexyl)amino)-8-isopropylpyrazolo[1,5-a][1,3,5]triazin-4-yl)amino)methyl)phenyl)cyclohexane-1-carboxamide] | 89% | 300 to 1000 nM | 
2 | C#CC(=O)N1CCOCC1C(=O)Nc1cccc(CNc2nc(NC3CCOCC3)nc3c(C(C)C)cnn23)c1 (centres unmarked) [Compound 25, N-(3-(((8-isopropyl-2-((tetrahydro-2H-pyran-4-yl)amino)pyrazolo[1,5-a][1,3,5]triazin-4-yl)amino)methyl)phenyl)-4-propioloylmorpholine-3-carboxamide] |  | < 300 nM | 99%
3 | C=CC(=O)Nc1ccccc1C(=O)Nc1cccc(CNc2nc(NC3CCOCC3)nc3c(C(C)C)cnn23)c1 [Compound 48, 2-acrylamido-N-(3-(((8-isopropyl-2-((tetrahydro-2H-pyran-4-yl)amino)pyrazolo[1,5-a][1,3,5]triazin-4-yl)amino)methyl)phenyl)benzamide] |  | < 300 nM | 98%
4 | CC(C)c1cnn2c(NCc3cccc(NC(=O)[C@H]4CC[C@@H](NC/C=C/C(=O)N(C)C)CC4)c3)nc(OC3CCN(C)CC3)nc12 [Compound 135, (1s,4s)-4-(((E)-4-(dimethylamino)-4-oxobut-2-en-1-yl)amino)-N-(3-(((8-isopropyl-2-((1-methylpiperidin-4-yl)oxy)pyrazolo[1,5-a][1,3,5]triazin-4-yl)amino)methyl)phenyl)cyclohexane-1-carboxamide] |  | < 300 nM | 97%
5 | C=CC(=O)NC1CCC(C(=O)Nc2cccc(Nc3nc(OC4CCN(C)CC4)nc4c(C(C)C)cnn34)c2)CC1 (stereo not drawn) [Compound 126, (1,4-cis)-4-acrylamido-N-(3-((8-isopropyl-2-((1-methylpiperidin-4-yl)oxy)pyrazolo[1,5-a][1,3,5]triazin-4-yl)amino)phenyl)cyclohexane-1-carboxamide] |  |  | 80%
6 | C=CC(=O)N1CCC(C(=O)Nc2cc(F)cc(CNc3nc(NC4CCOCC4)nc4c(C(C)C)cnn34)c2)C1 (centres unmarked) [Compound 33, 1-acryloyl-N-(3-fluoro-5-(((8-isopropyl-2-((tetrahydro-2H-pyran-4-yl)amino)pyrazolo[1,5-a][1,3,5]triazin-4-yl)amino)methyl)phenyl)pyrrolidine-3-carboxamide] |  | 300 to 1000 nM | 86%
7 | CC(C)c1cnn2c(NCc3cccc(NC(=O)C4CCCCN4C(=O)/C=C/CN4CCCC4)c3)nc(NC3CCOCC3)nc12 (centres unmarked) [Compound 77, (E)-N-(3-(((8-isopropyl-2-((tetrahydro-2H-pyran-4-yl)amino)pyrazolo[1,5-a][1,3,5]triazin-4-yl)amino)methyl)phenyl)-1-(4-(pyrrolidin-1-yl)but-2-enoyl)piperidine-2-carboxamide] |  | < 300 nM | 99%
8 | C=CC(=O)N[C@H]1CC[C@@H](C(=O)Nc2cccc(CNc3nc(NC4CCCC(O)C4)nc4c(C(C)C)cnn34)c2)CC1 (single isomer, unassigned) [Compound 10, 4-acrylamido-N-(3-(((2-((3-hydroxycyclohexyl)amino)-8-isopropylpyrazolo[1,5-a][1,3,5]triazin-4-yl)amino)methyl)phenyl)cyclohexane-1-carboxamide] |  | 300 to 1000 nM | 89%
9 | C=CC(=O)N[C@H]1CC[C@@H](C(=O)Nc2cccc(CNc3nc(N[C@H]4CC[C@H](O)CC4)nc4c(C(C)C)cnn34)c2)CC1 [Compound 9, (1,4-cis)-4-acrylamido-N-(3-(((2-(((1r,4r)-4-hydroxycyclohexyl)amino)-8-isopropylpyrazolo[1,5-a][1,3,5]triazin-4-yl)amino)methyl)phenyl)cyclohexane-1-carboxamide] |  | > 1000 nM | 85%
